Source: patent US12551173B2, “System and method for single-scan rest-stress cardiac PET” (The General Hospital Corporation, priority 2012, dated 2026)
Values joined by “and” are separate entries in the source; they are usually repeats but may differ in a detail not shown here. Equal entries are not always repeated.

Columns and labels:
myocardium [1] = test: Kinetic analysis of clinical 18F-Flurpiridaz rest and stress PET, two-compartment tissue model, three subjects; format: in vivo, human; parameters: unit not given here
Experimental: To evaluate and compare the methods proposed in this work, simulation studies were performed based on the kinetic parameters derived from human studies conducted with ^18F-Flurpiridaz, formerly known as ^18F-BMS747158-02 (Lantheus Medical Imaging, North Billerica, MA). As a pyridazinone analog, ^18F-Flurpiridaz binds to the mitochondrial complex I with high affinity. The combination of high first pass extraction and complex I binding ensure a high uptake in the myocardium with long residence time, due to the high mitochondrial density in the myocardial wall. Data from a rat model have shown that ^18F-Flurpiridaz has an extraction fraction of greater than 90% over the physiological MBF range, which makes it an attractive perfusion tracer. Validation of MBF measured with ^18F-Flurpiridaz has been performed by Nekolla et al. in pigs by comparison to microsphere and ^13N-ammonia flow measurements.
As an example case, kinetic analysis was carried out based on ^18F-Flurpiridaz clinical data. ^18F-Flurpiridaz data was used to determine the local myocardial kinetics used in the simulations. […] In these studies, rest and stress imaging sessions were separated by at least 2 h. First, the rest and stress studies for each of the subjects were analyzed separately. […] For each subject, the acquired stress images were first aligned to the images of the rest study using the nonrigid image registration tool from SPM8 9 Ashburner, J., et al., Hum. Brain Mapp 7, 254-266, 1999). The LV and RV input functions for each subject and each study were extracted with generalized factor analysis on dynamic series (GFADS) (El Fakhri, G., et al., J. Nucl. Med. 46, 1264-1271, 2005; El Fakhri, G., et al., Med. Phys. 33, 1016-1024, 2006). The LV input function was used to approximate the plasma input function. No metabolite correction was performed. Because there is a 2-h gap between the rest and stress studies, the residual myocardial activity from the first tracer is mostly tracer bound to MC 1 and is nearly unaffected by the stressor. The rest and stress image volumes of the heart were segmented into 17 standard segments. Time-activity curves were calculated for each segment. The residual activity from the rest study was estimated and subtracted from the stress time-activity curve. Then, the kinetic parameters were estimated for each segment under the resting state with its 25-min time-activity curve. k3 was fixed as 0.026 (1/min) during the curve fitting. For the time-activity curve of the stress study, only data within the first 7.5 min were used in the curve fitting. After the parameters were estimated for all 17 segments, the cardiac flow reserve (CFR=K1,s/K1,r) of each segment was calculated. For the left anterior descending (LAD) territory, the segments with the two lowest CRF values were selected and the mean of each kinetic parameter was calculated from the estimated parameters of those two segments. The same calculation was repeated for right coronary artery (RCA) and left circumflex (LCX) as well. After two segments were picked for each territory, the kinetic parameters of the other 11 segments were averaged to compute the average kinetic parameters of the normal myocardium. The computation of the kinetic parameters of the normal myocardium, LAD, LCX, and RCA territories was performed separately for each subject. Table 1 summarizes kinetic parameters K1 and k2 estimated from the clinical ^18F-Flurpiridaz studies and used for Monte Carlo simulations.

myocardium [2] = test: 100-min dynamic 18F-Flurpiridaz PET in cynomolgus monkey, 2-compartment model fit; format: in vivo
From the text: Due to the relatively short measurements obtained in human studies, longer duration ^18F-Flurpiridaz measurements were made in a healthy 4.1-kg cynomolgus monkey. The animal was imaged under resting state and general anesthesia with 1%-2% isoflurane mixed with 100% oxygen. A 100-min dynamic ^18F-Flurpiridaz PET study, with 1.25 mCi injected dose, was acquired with a microPET P4 system from Concorde Microsystems, Inc. Images were reconstructed with filtered back-projection (FBP) into 24×5-s, 6×30-s, 5×60-s, and 18×300-s frames. The LV and RV input functions were extracted with GFADS. A region of interest was drawn over the myocardium and used to calculate the time-activity curve, which was then fitted to the standard four parameter, two-compartment model, with corrections for blood-to-tissue spillover in Eq. (3). Compartment model kinetic analysis tool (COMKAT) (Muzic Jr., R. F., et al., J. Nucl. Med. 42, 636-645, 2001; Fang, Y. H., et al., J. Nucl. Med. 51, 77-84, 2010) under MATLAB R2009a (Mathworks, Natick MA) was used to perform the nonlinear least squares for parameter estimation with the frame duration used as the statistical weight. After the kinetic parameters were estimated from the 100-min time-activity curve, the data were refit while progressively reducing the observation period. First, K1, k2, f1, and fRV were estimated as a function of study duration of the time-activity curves, ranging from 1 to 10 min. Due to the short measurement periods used, k3 and k4 were fixed to the values estimated by the 100-min data. The parameter variance of each parameter was approximated by the covariance matrix from the nonlinear least squares fitting. Then, the duration of the time-activity curve was fixed to 10 min and estimation of K1, k2, f1, and fRV was repeated with k3 fixed at values ranging from 0 to 0.1, incremented by 0.005. k4 was fixed as the value derived from fitting the 100-min data. Again, variance of each estimated parameter was approximated by the covariance matrix.
Still another aspect of the present system and methods includes ^18F-Flurpiridaz myocardial blood flow estimation using dynamic PET in non-human primates. To evaluate the parameter precision when estimating the MBF, a long dynamic study was conducted on a 4.1-kg cynomolgus monkey and the MBF precision was examined with different durations of data being used for kinetic modeling. A dynamic ^18F-Flurpiridaz imaging study was performed on a microPET P4. The animal was imaged under the resting state for 100 minutes with an injected dose of 1.25 mCi. […] The LV (FIGS. 11A-11B) and RV input function were extracted with GFADS. Time-activity curve from a region of interest drawn over the myocardium was fitted to the 2-compartment model. The estimated parameters are: K1=0.51 (SD=1.5%), k2=0.075 (SD=4.7%), k3=0.026 (SD=10.2%) and k4=0.016 (SD=10.4%). […] To evaluate the precision of K1 and k2, different study durations were used, ranging from one minute to 10 minutes to estimate K1 and k2 (with k3 and k4 fixed) as plotted for K1 in FIG. 14B.

myocardium [3] = test: Tracer properties in the two-tissue compartment model (extraction, binding ratio); format: in vivo
From the text: In another aspect, a flow measurement strategy incorporates knowledge of the basic properties of partially trapped tracers with a two-tissue compartment model, allowing simplifications appropriate to quantitative flow measurements. In this model the tracer can be in one of two states, either free, as the injected molecule, or bound to a receptor. In the example case of ^18F-Flurpiridaz, previous studies have shown that it binds to the mitochondrial complex I. The product of plasma concentration (Cr) and transport rate K1 is the force driving tracer from capillary plasma to the free space. Symbolically, K1 is the plasmato-tissue transport rate, FE, the product of flow F and the unidirectional capillary extraction fraction, E. k2 is a rate constant summarizing the egress from tissue to plasma. The rate constants k3 and k4 provide a summary description of binding and release of tracer. The full operational equation for the two compartment model is well known. In one aspect a focus is directed to the first few minutes after IV injection. […] Second, the ratio k3/(k2+k3), is between 0.2-0.6, meaning that after the first few minutes of scanning, about half the tracer entering the tissue space is bound and the effect of binding must be considered when interpreting the data. Third, it has been shown that at least an hour of scanning is required to obtain good estimates of all parameters. […]

myocardium [4] = conditions: rat model, over the physiological MBF range; cited from earlier work
myocardium [5] = conditions: cited from earlier work
mitochondrial complex I = conditions: cited from earlier work
myocardial blood flow = conditions: intravenous infusion, from start of infusion; cited from earlier work
[6] = Subject 1, LAD territory, Stress
[7] = Subject 1, LCX territory, Stress
[8] = Subject 1, Normal myocardium, Rest
[9] = Subject 1, Normal myocardium, Stress
[10] = Subject 1, RCA territory, Stress
[11] = Subject 2, LAD territory, Stress
[12] = Subject 2, LCX territory, Stress
[13] = Subject 2, Normal myocardium, Rest
[14] = Subject 2, Normal myocardium, Stress
[15] = Subject 2, RCA territory, Stress
[16] = Subject 3, LAD territory, Stress
[17] = Subject 3, LCX territory, Stress
[18] = Subject 3, Normal myocardium, Rest
[19] = Subject 3, Normal myocardium, Stress
[20] = Subject 3, RCA territory, Stress
[21] = resting state, 100 minutes of data, 1.25 mCi

CC(C)(C)n1ncc(OCc2ccc(COCCF)cc2)c(Cl)c1=O [18F-Flurpiridaz]
K1 (myocardium [1]; Subject 1, LAD territory, Rest): 0.56 | k2 (myocardium [1]; Subject 1, LAD territory, Rest): 0.07 | K1 (myocardium [1]; [6]): 1.04 | k2 (myocardium [1]; [6]): 0.05 | K1 (myocardium [1]; Subject 1, LCX territory, Rest): 0.58 | k2 (myocardium [1]; Subject 1, LCX territory, Rest): 0.08 | K1 (myocardium [1]; [7]): 0.99 | k2 (myocardium [1]; [7]): 0.05 | K1 (myocardium [1]; [8]): 0.68 | k2 (myocardium [1]; [8]): 0.08 | K1 (myocardium [1]; [9]): 1.96 | k2 (myocardium [1]; [9]): 0.07 | K1 (myocardium [1]; Subject 1, RCA territory, Rest): 0.74 | k2 (myocardium [1]; Subject 1, RCA territory, Rest): 0.08 | K1 (myocardium [1]; [10]): 1.26 | k2 (myocardium [1]; [10]): 0.08 | K1 (myocardium [1]; Subject 2, LAD territory, Rest): 0.78 | k2 (myocardium [1]; Subject 2, LAD territory, Rest): 0.11 | K1 (myocardium [1]; [11]): 1.60 | k2 (myocardium [1]; [11]): 0.07 | K1 (myocardium [1]; Subject 2, LCX territory, Rest): 0.94 | k2 (myocardium [1]; Subject 2, LCX territory, Rest): 0.13 | K1 (myocardium [1]; [12]): 2.10 | k2 (myocardium [1]; [12]): 0.10 | K1 (myocardium [1]; [13]): 0.738 and 0.74 | k2 (myocardium [1]; [13]): 0.108 and 0.11 | K1 (myocardium [1]; [14]): 2.292 and 2.29 | k2 (myocardium [1]; [14]): 0.118 and 0.12 | K1 (myocardium [1]; Subject 2, RCA territory, Rest): 0.68 | k2 (myocardium [1]; Subject 2, RCA territory, Rest): 0.08 | K1 (myocardium [1]; [15]): 1.43 | k2 (myocardium [1]; [15]): 0.11 | K1 (myocardium [1]; Subject 3, LAD territory, Rest): 0.64 | k2 (myocardium [1]; Subject 3, LAD territory, Rest): 0.04 | K1 (myocardium [1]; [16]): 1.58 | k2 (myocardium [1]; [16]): 0.18 | K1 (myocardium [1]; Subject 3, LCX territory, Rest): 0.69 | k2 (myocardium [1]; Subject 3, LCX territory, Rest): 0.05 | K1 (myocardium [1]; [17]): 1.61 | k2 (myocardium [1]; [17]): 0.24 | K1 (myocardium [1]; [18]): 0.60 | k2 (myocardium [1]; [18]): 0.05 | K1 (myocardium [1]; [19]): 2.09 | k2 (myocardium [1]; [19]): 0.23 | K1 (myocardium [1]; Subject 3, RCA territory, Rest): 0.58 | k2 (myocardium [1]; Subject 3, RCA territory, Rest): 0.03 | K1 (myocardium [1]; [20]): 0.68 | k2 (myocardium [1]; [20]): 0.17 | estimated K1 as a function of the nominal value of k3 (myocardium [2]; rest state, k3 fixed at values between 0 and 0.1 min^-1 (FIG. 2B)): 0.498 to 0.507 | K1 (myocardium [2]; [21]): 0.51 (SD=1.5%) | k2 (myocardium [2]; [21]): 0.075 (SD=4.7%) | k3 (myocardium [2]; [21]): 0.026 (SD=10.2%) | k4 (myocardium [2]; [21]): 0.016 (SD=10.4%) | ratio k3/(k2+k3) (myocardium [3]): 0.2-0.6 | extraction fraction (myocardium [4]): greater than 90% | unidirectional extraction fraction (myocardium [5]; at all physiological flow rates): greater than 90% | first-pass extraction (myocardium [5]; in the coronary circulation): nearly complete | binding to mitochondrial complex I (mitochondrial complex I): high affinity

Nc1ncnc2c1ncn2[C@@H]1O[C@H](CO)[C@@H](O)[C@H]1O [adenosine]
time to reach the peak hyperemia (myocardial blood flow): 1.5 min

OCCN(CCO)c1nc(N2CCCCC2)c2nc(N(CCO)CCO)nc(N3CCCCC3)c2n1 [dipyridamole]
time to reach the peak hyperemia (myocardial blood flow): 6.5 min
